From patent US4927842A, “2,3,4,9-tetrahydro-1H-carbazole acetic acid derivatives, composition and use as anti-inflammatories” (American Home Products Corporation, priority 1989, dated 1990)

Tested on: rats
Test: Preventative Adjuvant Edema (acute anti-inflammatory effect in rats)
Assay type: in vivo, Male Sprague Dawley rats
Conditions: 25 mg/kg, p.o.; given immediately before, 24 and 48 hours after Freund's complete adjuvant; hind paw edema volume day 0 to day 3
Method: This test is a primary screen for anti-inflammatory drugs.
Male Sprague Dawley rats (180-200 g) are used. The animals have free access to water but food is withdrawn 18 hours before testing.
Freund's complete adjuvant is prepared by suspending 5 mg killed and dried Mycobacterium butyricum (Difco) in 1 mL mineral oil. The test compounds are dissolved in distilled water or suspended in 0.5% Tween 80 in distilled water according to their solubility. For primary screening all drugs are administered by gastric lavage at the arbitrary dosage of 25 mg/kg, p.o. in a volume of 0.5 mL/100 g body weight to groups of 10 animals.
The method is essentially that described by Wax et al, J. Pharmacol. Exp. Ther., 192, 166-171 (1975). Groups of rats are injected intradermally in the left hand paw with 0.1 mL of Freund's complete adjuvant. The test compound or vehicle is administered immediately before the adjuvant, 24 hours and 48 hours after the adjuvant (day 0, 1 and 2). The injected hind paw volume is measured before the injection of adjuvant and 24 hours after the last drug administration (day 3) by means of a plethysmometer (Buxco Electronics Inc.). The difference between the hind paw volume on day 0 and day 3 represents the edema volume. Etodolac (25 mg/kg, p.o.) is included as a positive control.
The mean edema volume (expressed as mL±SEM) is calculated for each group and the percentage protection conferred by the drug is calculated: [formula] where c is the mean edema volume for the untreated controls and t is the mean edema volume for the drug treated group.

Molecule | % Inhibition
CC[C@]1(CC(=O)O)CC[C@@H](CC=NOC)c2c1[nH]c1c(C)cccc21 (relative stereo) [Example 2, cis-1-Ethyl-2,3,4,9-tetrahydro-4-[2-(methoxyimino)ethyl]-8-methyl-1H-carbazole-1-acetic Acid] | 45%
CC[C@]1(CC(=O)O)CC[C@@H](CC(C)=O)c2c1[nH]c1c(C)cccc21 (relative stereo) [Example 3, cis-1-Ethyl-2,3,4,9-tetrahydro-8-methyl-4-(2-oxopropyl)-1H-carbazole-1-acetic Acid] | 52%
cis-1-Ethyl-2,3,4,9-tetrahydro-4-[2-(hydroxyimino)ethyl]-8-methyl-1H-carbazole-1-acetic Acid [Example 1] | 59%
CC[C@]1(CC(=O)O)CC[C@@H](CC#N)c2c1[nH]c1c(C)cccc21 (relative stereo) [Example 4, cis-4-(Cyanomethyl)-1-ethyl-2,3,4,9-tetrahydro-8-methyl-1H-carbazole-1-acetic Acid] | 52%
